US11021481B2, “Substituted isoindolin-1-ones and 2,3-dihydro-1h-pyrrolo[3,4-c]pyridin-1-ones as HPK1 antagonists” (Nimbus Saturn, Inc., priority 2019, dated 2021)

These compounds were tested against HPK1 (Homo sapiens (Human), UniProt Q92918) (assay: HPK1 biochemical enzyme assay (microfluidic mobility shift assay)). Details: 1.5 nM HPK1, ATP 1 mM final, 30 min preincubation, 60 min at RT, Caliper EZ Reader; read-out: HPK1 1000UMATP caliper IC50.
Summary of the method: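 Ten-point compound titrations (top 3 μM final) preincubated 30 min with HPK1 and substrate, then reaction started with 1 mM ATP and 1 μM substrate, 5 mM MgCl2. After 60 min at RT, reaction terminated and product measured by microfluidic mobility shift.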

Chain of HPK1 (Q92918 whole entry): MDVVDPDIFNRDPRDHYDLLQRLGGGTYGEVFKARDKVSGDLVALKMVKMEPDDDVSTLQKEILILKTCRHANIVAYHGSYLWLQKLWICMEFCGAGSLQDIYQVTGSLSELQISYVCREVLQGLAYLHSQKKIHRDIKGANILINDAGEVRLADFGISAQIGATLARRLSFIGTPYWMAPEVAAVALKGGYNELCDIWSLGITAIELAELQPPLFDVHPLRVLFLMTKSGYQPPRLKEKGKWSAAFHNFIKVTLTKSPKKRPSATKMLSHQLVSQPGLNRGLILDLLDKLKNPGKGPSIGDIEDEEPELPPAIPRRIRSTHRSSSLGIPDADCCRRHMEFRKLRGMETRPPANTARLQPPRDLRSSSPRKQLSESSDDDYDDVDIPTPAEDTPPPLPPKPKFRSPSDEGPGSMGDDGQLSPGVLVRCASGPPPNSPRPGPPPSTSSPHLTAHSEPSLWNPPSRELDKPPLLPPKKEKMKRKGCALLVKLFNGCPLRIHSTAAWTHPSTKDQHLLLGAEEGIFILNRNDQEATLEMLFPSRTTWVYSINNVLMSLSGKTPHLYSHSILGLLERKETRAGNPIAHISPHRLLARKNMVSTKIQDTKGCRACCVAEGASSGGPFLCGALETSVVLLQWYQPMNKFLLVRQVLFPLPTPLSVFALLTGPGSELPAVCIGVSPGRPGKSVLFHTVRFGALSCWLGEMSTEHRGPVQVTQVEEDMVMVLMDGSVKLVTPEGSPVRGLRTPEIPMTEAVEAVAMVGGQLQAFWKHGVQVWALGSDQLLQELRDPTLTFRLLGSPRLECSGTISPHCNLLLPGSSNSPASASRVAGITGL

With `CN(C)Cc1nc(Nc2ccc(-c3cnc4cc(F)ccn34)c3c2C(=O)NC3)ccc1[C@H]1CCN(C)C(=O)C1` [I-556, (S)-7-((6-((dimethylamino)-methyl)-5-(1-methyl-2-oxopiperidin-4-yl)pyridin-2-yl)amino)-4-(7-fluoroimidazo [1,2-a]pyridin-3-yl)isoindolin-1-one] as the compound, how does the IC50 read?
The IC50 was less than 100 nM.

For `Cn1ccc2c(-c3ncc(Nc4ccc(N5C[C@H]6C[C@@H]5CO6)cn4)c4c3CNC4=O)ccnc21` [I-289, 7-((5-((1R,4R)-2-oxa-5-azabicyclo[2.2.1]heptan-5-yl)pyridin-2-yl)amino)-4-(1-methyl-1H-pyrrolo[2,3-b]pyridin-4-yl)-2,3-dihydro-1H-pyrrolo[3,4-c]pyridin-1-one], which IC50 is on record?
Its IC50 is less than 100 nM.

For `CC1(C)CNCCN1Cc1ccc(Nc2ccc(-c3cnc4c(F)c(C(F)F)ccn34)c3c2C(=O)NC3)nc1` [I-655, 4-(7-(difluoromethvl)-8-fluoroimidazo [1,2-a]pyridin-3-yl)-7-((5-((2,2-dimethylpiperazin-1-yl)methyl)pyridin-2-yl)amino)isoin-dolin-1-one], which IC50 is on record?
The IC50 was less than 100 nM.

Which IC50 does the source give for `Cn1nc(Nc2ccc(-c3cnc4cc(F)ccn34)c3c2C(=O)NC3)cc1C1CCOCC1` [I-408] here?
The IC50 was less than 100 nM.

For `O=C1NCc2c(-c3cnc4n3CCCC4)ccc(Nc3ccc(N4CCNCC4)cn3)c21` [I-80, 7-[(5-piperazin-1-yl-2-pyridyl)amino]-4-(5,6,7,8-tetrahydro-imidazo[1,2-a]pyridin-3-yl)isoindolin-1-one], which IC50 is on record?
Its IC50 is less than 100 nM.

With `O=C1NCc2c(-c3cnc4cc(Cl)ccn34)ccc(Nc3ccc(N4CCC(O)(CN5CCOCC5)CC4)cn3)c21` [I-447, 4-(7-chloroimidazo [1,2-a]pyridin-3-yl)-7-((5-(4-hydroxy-4-(morpholino-methyl)piperidin-1-yl)pyridin-2-yl)amino)isoin-dolin-1-one] as the compound, how does the IC50 read?
Its IC50 is less than 100 nM.

Which IC50 does the source give for `Cc1cc(Nc2cnc(-c3ccnc4c3ccn4C)c3c2C(=O)NC3)nc(N2CC[C@H]3CNC[C@H]32)c1` [I-641, 7-((6-((3aS.6aS)-hcxahydropyrr-olo[3,4-b]pyrrol-1(2H)-yl)-4-methylpyridin-2-yl)amino)-4-(1-methyl-1H-pyrrolo[2,3-b]pyridin-4-yl)-2,3-dihydro-1H-pyrrolo[3,4-c]pyridin-1-one] here?
The IC50 was less than 100 nM.

With `O=C1NCc2c(-c3cnc4cc(F)ccn34)ccc(Nc3ccc(N4CCC[C@H](N5CCOCC5)C4)cn3)c21` [I-501, (S)-4-(7-fluoroimidazo [1,2-a]pyridin-3-yl)-7-((5-(3-morpholinopip-eridin-1-yl)pyridin-2-yl)amino)isoin-dolin-1-one] as the compound, how does the IC50 read?
Its IC50 is less than 100 nM.

Which IC50 does the source give for `O=C1NCc2c(-c3cnc4cc(C5CC5)ccn34)ccc(Nc3ccc(N4CCC(O)CC4)cn3)c21` [I-181, 4-(7-cyclopropyl-imidazo[1,2-a]pyridin-3-yl)-7-[[5-(4-hydroxy-1-piperidyl)-2-pyridyl]amino] isoindolin-1-one] here?
Its IC50 is less than 100 nM.

How did the IC50 turn out when `O=C1NCc2c(-c3cnc4c(F)cccn34)ncc(Nc3ccc(N4CC[C@@H](F)[C@H](O)C4)cn3)c21` [I-652, 7-((5-((3R,4R)-4-fluoro-3-hydroxypiperidin-1-yl)pyridin-2-yl)amino)-4-(8-fluoroimidazo [1,2-a]pyridin-3-yl)-2,3-dihydro-1H-pyrrolo[3,4-c]pyridin-1-one] was run?
Its IC50 is less than 100 nM.

With `Cc1ccn2c(-c3ccc(Nc4ccc(CN5CCN(C)CC5)cn4)c4c3CNC4=O)cnc2c1F` [I-605, 4-(8-fluoro-7-methylimidazo [1,2-a]pyridin-3-yl)-7-((5-((4-methylpiperazin-1-yl)methyl)pyri-din-2-yl)amino)isoin-dolin-1-one] as the compound, how does the IC50 read?
The IC50 was less than 100 nM.

Which IC50 does the source give for `O=C1NCc2c(-c3cnc4cnccn34)ccc(Nc3ccc(N4CCOC(CO)C4)cn3)c21` (centres unmarked) [I-358, 7-((5-(2-(hydroxymeth-yl)morpholino)-pyridin-2-yl)amino)-4-(imidazo[1,2-a]pyrazin-3-yl)isoindolin-1-one] here?
The IC50 was less than 100 nM.

For `CN(C)Cc1nc(Nc2ccc(-c3cnc4cc(F)ccn34)c3c2C(=O)NC3)ccc1C1(O)CCOCC1` [I-719, 7-((6-((dimethylamino)-methyl)-5-(4-hydroxytetra-hydro-2H-pyran-4-yl)pyridin-2-yl)amino)-4-(7-fluoroimidazo [1,2-a]pyridin-3-yl)isoindolin-1-one], which IC50 is on record?
Its IC50 is less than 100 nM.

`Cc1c(F)ccn2c(-c3ccc(Nc4ccc(N5CCC(O)CC5)cn4)c4c3CNC4=O)cnc12` [I-209, 4-(7-fluoro-8-methyl-imidazo[1,2-a]pyridin-3-yl)-7-[[5-(4-hydroxy-1-piperidyl)-2-pyridyl]amino] isoindolin-1-one] was tested. Which IC50 did it give?
The IC50 was less than 100 nM.

How did the IC50 turn out when `Cc1ccc2ncc(-c3ccc(Nc4ccc(N5CCN(C)CC5)cn4)c4c3CNC4=O)n2c1` [I-51, 4-(6-methylimidazo [1,2-a]pyridin-3-yl-)-7-[[5-(4-methylpiperazin-1-yl)-2-pyridyl]amino] isoindolin-1-1-one] was run?
The IC50 was less than 100 nM.

`Cc1ccc2c(-c3ccc(Nc4ccc(N5CCN(C)CC5)cn4)c4c3CNC4=O)c[nH]c2n1` [I-29, 7-[[5-(4-methylpiperazin-1-yl)-2-pyridyl]amino]-4-(6-methyl-1H-pyrrolo[2,3-b]pyridin-3-yl)-isoindolin-1-one] was tested. Which IC50 did it give?
The IC50 was less than 100 nM.

How did the IC50 turn out when `CN(C)C(C)(C)C1CCCN(c2ccc(Nc3ccc(-c4cnc5cc(F)ccn45)c4c3C(=O)NC4)nc2)C1` (centres unmarked) [I-582, 7-((5-(3-(2-(dimethylami-no)propan-2-yl)piperidin-1-yl)pyridin-2-yl)amino)-4-(7-fluoroimidazo [1,2-a]pyridin-3-yl)isoindolin-1-one] was run?
Its IC50 is less than 100 nM.

How did the IC50 turn out when `O=C1NCc2c(-c3cnc4cc(F)ccn34)ccc(Nc3ccc(C4(O)CCOCC4)cn3)c21` [I-371, 4-(7-fluoroimidazo [1,2-a]pyridin-3-yl)-7-((5-(4-hydroxtetra-hydro-2H-pyran-4-yl)pyridin-2-yl)amino)isoin-dolin-1-one] was run?
Its IC50 is less than 100 nM.

For `CN1CCN(CC2(O)CCN(c3ccc(Nc4cnc(-c5ccnc6c5ccn6C)c5c4C(=O)NC5)nc3)CC2)CC1` [I-401, 7-((5-(4-hydroxy-4-((4-methylpiperazin-1-yl)methyl)piper-idin-1-yl)pyridin-2-yl)amino)-4-(1-methyl-1H-pyrrolo[2,3-b]pyridin-4-yl)-2,3-dihydro-1H-pyrrolo[3,4-c]pyridin-1-one], which IC50 is on record?
Its IC50 is less than 100 nM.

With `CN(C)[C@@H]1CCCc2ccc(Nc3ccc(-c4cnc5cc(F)ccn45)c4c3C(=O)NC4)nc21` [I-842, (R)-7-((8-(dimethylam-ino)-5,6,7,8-tetrahydroquin-olin-2-yl)amino)-4-(7-fluoroimidazo [1,2-a]pyridin-3-yl)isoindo1in-1-one] as the compound, how does the IC50 read?
Its IC50 is less than 100 nM.

How did the IC50 turn out when `Cn1ccc2c(-c3ncc(Nc4cccc(N5CCCNCC5)n4)c4c3CNC4=O)ccnc21` [I-240, 7-[[6-(1,4-diazepan-1-yl)-2-pyridyl]amino]-4-(1-methylpyrrolo [2,3-b]pyridin-4-yl)-2,3-dihydropyrrolo [3,4-c]pyridin-1-one] was run?
Its IC50 is 100 to 1000 nM.

How did the IC50 turn out when `CN[C@@H]1CCCN(c2ccc(Nc3ccc(-c4ccnc5c4ccn5C)c4c3C(=O)NC4)nc2)C1` [I-100, 7-[[5-[(3R)-3-(methviamino)-1-piperidyl]-2-pyridyl]amino]-4-(1-methylpyrrolo [2,3-b]pyridin-4-yl)isoindolin-1-one] was run?
Its IC50 is less than 100 nM.

For `Cn1ccc2c(-c3ncc(Nc4cccc(N5C[C@H](N)CC5=O)n4)c4c3CNC4=O)ccnc21` [I-691, (R)-7-((6-(4-amino-2-oxopyrrolidin-1-yl)pyridin-2-yl)amino)-4-(1-methyl-1H-pyrrolo[2,3-b]pyridin-4-yl)-2,3-dihydro-1H-pyrrolo[3,4-c]pyridin-1-one], which IC50 is on record?
The IC50 was less than 100 nM.

How did the IC50 turn out when `COC1CCN(c2ccc(Nc3cnc(-c4cnc5c(F)cccn45)c4c3C(=O)NC4)nc2)CC1` [I-455, 4-(8-fluoroimidazo [1,2-a]pyridin-3-yl)-7-[[5-(4-methoxy-1-piperidyl)-2-pyridyl]amino]-2,3-dihydropyrrolo [3,4-c]pyridin-1-one] was run?
Its IC50 is 100 to 1000 nM.

Which IC50 does the source give for `O=C1NCc2c(-c3cnc4cc(F)ccn34)ccc(Nc3ccc([C@H]4CCOC4)c(CN4CC[C@H](F)C4)n3)c21` (stereo in doubt) [I-735, 4-(7-fluoroimidazo [1,2-a]pyridin-3-yl)-7-((6-(((S)-3-fluoropyrrol-idin-1-yl)methyl)-5-((S)-tetrahydrofuran-3-yl)pyridin-2-yl)amino)isoin-dolin-1-one] here?
The IC50 was less than 100 nM.

Which IC50 does the source give for `O=C1NCc2c(-c3cnn4c3CCCC4)ccc(Nc3ccc(N4CCC[C@@]5(CCNC5=O)C4)cn3)c21` [I-445, (R)-7-(6-((3-oxo-7-(4,5,6,7-tetrahydropyra-zolo[1,5-a]pyridin-3-yl)isoindolin-4-yl)amino)pyri-din-3-yl)-2,7-diazaspiro[4.5] decan-1-one] here?
The IC50 was 100 to 1000 nM.

With `Cc1cnn2c(-c3ccc(Nc4ccc([C@H]5CCOC5)c(CN(C)C)n4)c4c3CNC4=O)cnc2c1` [I-537, (R)-7-((6-((dimethylamino)-methyl)-5-(tetrahydrofuran-3-yl)pyridin-2-yl)amino)-4-(7-methylimidazo [1,2-b]pyridazin-3-yl)isoindolin-1-one] as the compound, how does the IC50 read?
The IC50 was less than 100 nM.

Which IC50 does the source give for `O=C1NCc2c(-c3c[nH]c4ccccc34)ncc(Nc3ccc(N4CCOCC4)cn3)c21` [I-3, 4-(1H-indo1-3-yl)-7-[(5-morpholino-2-pyridyl)amino]-2,3-dihydropyrrolo [3,4-c] pyridin-1-one] here?
The IC50 was 100 to 1000 nM.

For `CN(Cc1nc(Nc2ccc(-c3cnc4cc(F)ccn34)c3c2C(=O)NC3)ccc1[C@@H]1CCOC1)C1CC1` [I-738], which IC50 is on record?
Its IC50 is less than 100 nM.

With `CN(C)Cc1nc(Nc2ccc(-c3cnc4cc(F)ccn34)c3c2C(=O)NC3)ccc1[C@H]1CCCOC1` [I-550] as the compound, how does the IC50 read?
The IC50 was less than 100 nM.

`CN1CCN(c2ccc(Nc3ccc(-c4c[nH]c5ccncc45)c4c3C(=O)NC4)nc2)CC1` [I-24, 7-((5-(4-methylpiperazin-1-yl)pyridin-2-yl)amino)-4-(1H-pyrrolo[3,2-c]pyridin-3-yl)isoindolin-1-one] was tested. Which IC50 did it give?
Its IC50 is less than 100 nM.

Which IC50 does the source give for `CCNC(=O)c1ccc(Nc2ccc(-c3ccnc4c3ccn4C)c3c2C(=O)NC3)nc1` [I-109, N-ethyl-6-[[7-(1-methylpyrrolo [2,3-b]pyridin-4-yl)-3-oxo-isoindolin-4-yl]amino]pyridine-3-carboxamide] here?
The IC50 was less than 100 nM.
